From ChEMBL document CHEMBL4007467, “Effects of 6-paradol, an unsaturated ketone from gingers, on cytochrome P450-mediated drug metabolism” (Bioorg Med Chem Lett, 2017) come the findings set out here.

Usually IC50 stands for the concentration that inhibits the measured activity by half.

Common to all, as to format: ADME
The target of data set [1] is T1, CYP2A6 (Homo sapiens, UniProt P11509).
T1 sequence (P11509 whole entry): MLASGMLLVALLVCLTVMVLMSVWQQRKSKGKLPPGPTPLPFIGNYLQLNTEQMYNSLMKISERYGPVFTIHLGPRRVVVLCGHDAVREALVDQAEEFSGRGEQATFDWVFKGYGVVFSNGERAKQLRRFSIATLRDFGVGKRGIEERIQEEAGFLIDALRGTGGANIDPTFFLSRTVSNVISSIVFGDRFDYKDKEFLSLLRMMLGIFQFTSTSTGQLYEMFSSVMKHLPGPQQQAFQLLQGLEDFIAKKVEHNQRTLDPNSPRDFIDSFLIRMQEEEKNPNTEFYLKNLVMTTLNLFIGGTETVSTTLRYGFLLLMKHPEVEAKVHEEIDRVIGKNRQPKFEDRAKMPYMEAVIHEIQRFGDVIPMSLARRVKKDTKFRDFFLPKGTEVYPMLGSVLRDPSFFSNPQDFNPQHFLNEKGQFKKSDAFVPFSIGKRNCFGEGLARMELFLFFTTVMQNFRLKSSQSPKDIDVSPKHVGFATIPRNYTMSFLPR
The data set is described as follows: Inhibition of CYP2A6 in human liver microsomes assessed as enzyme-mediated metabolite formation at 30 uM using coumarin as substrate incubated for 5 mins followed by NADPH addition measured after 30 mins by LC-MS/MS analysis relative to control. As to conditions: probe coumarin, read-out: Activity. More on the design: scale not given: the % may be the effect or the level left.

For another data set, the target named is CYP2C19 (Homo sapiens, UniProt P33261). The data set is described as follows: Inhibition of CYP2C19 in human liver microsomes assessed as enzyme-mediated metabolite formation at 3 uM using (S)-mephenytoin as substrate preincubated for 20 mins followed by substrate addition measured after 30 mins in presence of NADPH by LC-MS/MS analysis relative to control. More on the design: scale not given: the % may be the effect or the level left. The settings on record: probe (S)-mephenytoin, read-out: Activity. (Liver microsomes are vesicles of endoplasmic reticulum, rich in cytochrome P450 enzymes.)

Data set [2] deals with T2, CYP3A4 (Homo sapiens, UniProt P08684). The data set is described as follows: Inhibition of CYP3A4 in human liver microsomes assessed as enzyme-mediated metabolite formation at 0.3 uM using midazolam as substrate incubated for 5 mins followed by NADPH addition measured after 30 mins by LC-MS/MS analysis relative to control. The settings on record: probe midazolam, read-out: Activity. Set-up: scale not given: the % may be the effect or the level left.

In data set [3] the target is T3, CYP2B6 (Homo sapiens, UniProt P20813).
T3 sequence (P20813 whole entry): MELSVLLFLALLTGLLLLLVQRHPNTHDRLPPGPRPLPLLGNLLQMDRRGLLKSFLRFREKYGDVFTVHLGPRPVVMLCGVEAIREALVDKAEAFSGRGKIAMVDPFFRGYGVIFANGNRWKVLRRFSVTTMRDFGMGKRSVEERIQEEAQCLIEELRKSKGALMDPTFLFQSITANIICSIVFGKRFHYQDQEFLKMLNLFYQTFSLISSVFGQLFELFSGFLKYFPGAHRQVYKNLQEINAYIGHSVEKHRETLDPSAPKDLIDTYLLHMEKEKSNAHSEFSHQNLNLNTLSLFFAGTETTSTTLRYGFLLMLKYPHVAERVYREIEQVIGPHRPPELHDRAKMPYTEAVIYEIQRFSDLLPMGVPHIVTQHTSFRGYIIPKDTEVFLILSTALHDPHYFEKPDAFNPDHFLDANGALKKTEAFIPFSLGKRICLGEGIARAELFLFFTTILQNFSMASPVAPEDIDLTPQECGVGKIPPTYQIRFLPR
As to the kind of experiment: Inhibition of CYP2B6 in human liver microsomes assessed as enzyme-mediated metabolite formation at 3 uM using bupropion as substrate incubated for 5 mins followed by NADPH addition measured after 30 mins by LC-MS/MS analysis relative to control. The settings on record: probe bupropion, read-out: Activity. More on the design: scale not given: the % may be the effect or the level left.

In data set [4] the target is T4, CYP2C9 (Homo sapiens, UniProt P11712). The data set is described as follows: Inhibition of CYP2C9 in human liver microsomes assessed as enzyme-mediated metabolite formation at 10 uM using diclofenac as substrate incubated for 5 mins followed by NADPH addition measured after 30 mins by LC-MS/MS analysis relative to control. Set-up: scale not given: the % may be the effect or the level left. As to conditions: probe diclofenac, read-out: Activity.

In a further data set the target is T5, Cytochrome P450 2B6 (Homo sapiens, UniProt P20813).
T5 sequence (P20813 whole entry): T3 sequence (P20813 whole entry)
The data set is described as follows: Inhibition of CYP2B6 in human liver microsomes assessed as enzyme-mediated metabolite formation using bupropion as substrate incubated for 5 mins followed by NADPH addition measured after 30 mins by LC-MS/MS analysis.

Data set [5] concerns the target T4, CYP2C9. The data set is described as follows: Inhibition of CYP2C9 in human liver microsomes assessed as enzyme-mediated metabolite formation at 1 uM using diclofenac as substrate preincubated for 20 mins followed by substrate addition measured after 30 mins in presence of NADPH by LC-MS/MS analysis relative to control. More on the design: scale not given: the % may be the effect or the level left. As to conditions: probe diclofenac, read-out: Activity.

For data set [6], the target named is T2, CYP3A4. As to the kind of experiment: Inhibition of CYP3A4 in human liver microsomes assessed as enzyme-mediated metabolite formation at 1 uM using midazolam as substrate preincubated for 20 mins followed by substrate addition measured after 30 mins in presence of NADPH by LC-MS/MS analysis relative to control. More on the design: scale not given: the % may be the effect or the level left. The settings on record: probe midazolam, read-out: Activity.

In another data set the target is CYP2D6 (Homo sapiens, UniProt P10635). As to the kind of experiment: Inhibition of CYP2D6 in human liver microsomes assessed as enzyme-mediated metabolite formation at 0.1 uM using dextromethorphan as substrate preincubated for 20 mins followed by substrate addition measured after 30 mins in presence of NADPH by LC-MS/MS analysis relative to control. Set-up: scale not given: the % may be the effect or the level left. As to conditions: probe dextromethorphan, read-out: Activity.

For data set [7], the target named is T3, CYP2B6. The data set is described as follows: Inhibition of CYP2B6 in human liver microsomes assessed as enzyme-mediated metabolite formation at 0.3 uM using bupropion as substrate preincubated for 20 mins followed by substrate addition measured after 30 mins in presence of NADPH by LC-MS/MS analysis relative to control. More on the design: scale not given: the % may be the effect or the level left. The settings on record: probe bupropion, read-out: Activity.

The target in the next data set is T6, CYP1A2 (Homo sapiens, UniProt P05177).
T6 sequence (P05177 whole entry): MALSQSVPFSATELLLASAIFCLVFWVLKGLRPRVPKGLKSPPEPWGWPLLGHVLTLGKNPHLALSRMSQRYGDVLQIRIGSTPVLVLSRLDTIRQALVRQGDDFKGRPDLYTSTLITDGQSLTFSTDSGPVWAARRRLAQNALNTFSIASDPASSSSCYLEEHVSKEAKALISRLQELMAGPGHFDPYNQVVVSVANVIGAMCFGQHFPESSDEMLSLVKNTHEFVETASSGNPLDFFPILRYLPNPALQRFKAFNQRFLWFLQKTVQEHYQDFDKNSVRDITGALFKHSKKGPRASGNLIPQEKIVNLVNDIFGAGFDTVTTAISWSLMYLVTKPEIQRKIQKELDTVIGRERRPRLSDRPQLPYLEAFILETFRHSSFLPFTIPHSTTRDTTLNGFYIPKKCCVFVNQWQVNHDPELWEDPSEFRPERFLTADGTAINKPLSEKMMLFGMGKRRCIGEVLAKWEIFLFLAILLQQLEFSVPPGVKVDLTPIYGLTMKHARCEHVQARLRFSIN
The data set is described as follows: Inhibition of CYP1A2 in human liver microsomes assessed as enzyme-mediated metabolite formation at 0.3 uM using phenacetin as substrate preincubated for 20 mins followed by substrate addition measured after 30 mins in presence of NADPH by LC-MS/MS analysis relative to control. More on the design: scale not given: the % may be the effect or the level left. The settings on record: probe phenacetin, read-out: Activity.

In data set [8] the target is T1, CYP2A6. The data set is described as follows: Inhibition of CYP2A6 in human liver microsomes assessed as enzyme-mediated metabolite formation at 1 uM using coumarin as substrate incubated for 5 mins followed by NADPH addition measured after 30 mins by LC-MS/MS analysis relative to control. More on the design: scale not given: the % may be the effect or the level left. As to conditions: probe coumarin, read-out: Activity.

T4 sequence (P11712 whole entry): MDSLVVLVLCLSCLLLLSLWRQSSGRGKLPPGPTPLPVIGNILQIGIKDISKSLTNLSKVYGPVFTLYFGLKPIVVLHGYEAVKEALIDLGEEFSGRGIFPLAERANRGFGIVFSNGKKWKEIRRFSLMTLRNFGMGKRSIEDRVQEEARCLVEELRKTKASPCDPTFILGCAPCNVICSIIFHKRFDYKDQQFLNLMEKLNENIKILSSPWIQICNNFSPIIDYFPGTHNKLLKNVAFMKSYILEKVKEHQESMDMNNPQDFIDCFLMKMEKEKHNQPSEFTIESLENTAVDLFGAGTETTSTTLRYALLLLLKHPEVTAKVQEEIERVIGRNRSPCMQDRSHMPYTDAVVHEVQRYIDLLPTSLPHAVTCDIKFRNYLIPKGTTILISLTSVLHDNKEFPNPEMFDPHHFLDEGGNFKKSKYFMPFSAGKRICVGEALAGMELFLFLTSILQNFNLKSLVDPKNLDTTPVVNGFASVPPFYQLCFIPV
T2 sequence (P08684 whole entry): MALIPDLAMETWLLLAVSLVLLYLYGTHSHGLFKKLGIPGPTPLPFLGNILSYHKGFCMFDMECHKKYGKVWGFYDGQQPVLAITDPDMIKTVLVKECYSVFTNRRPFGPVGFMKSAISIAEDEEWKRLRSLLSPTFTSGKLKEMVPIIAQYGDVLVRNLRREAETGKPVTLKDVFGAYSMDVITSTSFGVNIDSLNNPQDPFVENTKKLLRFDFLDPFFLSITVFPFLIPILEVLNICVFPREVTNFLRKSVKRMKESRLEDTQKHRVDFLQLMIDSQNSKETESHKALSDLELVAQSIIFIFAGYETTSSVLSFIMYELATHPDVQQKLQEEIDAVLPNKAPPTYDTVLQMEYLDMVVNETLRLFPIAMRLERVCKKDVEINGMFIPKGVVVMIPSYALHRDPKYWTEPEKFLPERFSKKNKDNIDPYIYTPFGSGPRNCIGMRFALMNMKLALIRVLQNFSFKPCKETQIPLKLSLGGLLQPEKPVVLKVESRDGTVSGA
CYP2C19, sequence (P33261 whole entry): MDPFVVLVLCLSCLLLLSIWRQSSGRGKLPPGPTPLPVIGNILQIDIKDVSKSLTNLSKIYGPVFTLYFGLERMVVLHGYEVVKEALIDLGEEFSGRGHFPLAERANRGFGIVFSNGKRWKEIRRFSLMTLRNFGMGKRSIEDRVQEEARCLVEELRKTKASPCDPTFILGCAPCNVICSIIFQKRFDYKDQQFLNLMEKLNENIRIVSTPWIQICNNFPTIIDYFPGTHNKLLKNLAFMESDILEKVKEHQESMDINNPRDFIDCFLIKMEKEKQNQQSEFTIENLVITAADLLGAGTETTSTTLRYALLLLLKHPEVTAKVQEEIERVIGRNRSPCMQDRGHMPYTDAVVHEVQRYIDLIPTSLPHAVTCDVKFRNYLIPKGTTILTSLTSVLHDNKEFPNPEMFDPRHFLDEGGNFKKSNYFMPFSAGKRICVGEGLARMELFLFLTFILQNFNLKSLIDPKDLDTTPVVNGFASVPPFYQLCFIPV
CYP2D6, sequence (P10635 whole entry): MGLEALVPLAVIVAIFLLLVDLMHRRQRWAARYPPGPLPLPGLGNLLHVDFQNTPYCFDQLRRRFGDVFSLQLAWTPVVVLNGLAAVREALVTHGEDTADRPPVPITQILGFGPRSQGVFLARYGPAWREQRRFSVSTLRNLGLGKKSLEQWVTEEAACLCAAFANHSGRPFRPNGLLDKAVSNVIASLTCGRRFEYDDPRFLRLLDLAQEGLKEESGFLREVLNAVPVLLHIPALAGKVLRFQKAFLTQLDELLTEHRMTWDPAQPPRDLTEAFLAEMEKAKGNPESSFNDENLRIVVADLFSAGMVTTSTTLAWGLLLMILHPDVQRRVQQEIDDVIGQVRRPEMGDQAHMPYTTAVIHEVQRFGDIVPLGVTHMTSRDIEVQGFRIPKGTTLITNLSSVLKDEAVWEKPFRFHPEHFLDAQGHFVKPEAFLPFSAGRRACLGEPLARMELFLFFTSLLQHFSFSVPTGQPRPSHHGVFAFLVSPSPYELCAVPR

As to `CCCCCCCC(=O)CCc1ccc(O)c(OC)c1`, the activity at 0.5 h, 30 µM at CYP2A6 [1] is 77.4%. The activity at 0.5 h, 3 µM at CYP2C19 stood at 67.6%; at CYP2B6 [3], 65.7%. The activity at 0.5 h, 0.3 µM worked out at 103% on CYP3A4 [2], 81.3% at CYP2B6 [7] and 96.4% at CYP1A2. Further, at CYP2C9 [4], the activity at 0.5 h, 10 µM is 52.3%. In addition, the IC50 at Cytochrome P450 2B6 amounted to 15.4 µM. The activity at 0.5 h, 1 µM was found to be 81.1% on CYP2C9 [5], 91.5% on CYP3A4 [6] and 83.6% on CYP2A6 [8]. In addition, the activity at 0.5 h, 0.1 µM at CYP2D6 amounted to 89.5%.
